Reference: patent US12458643B2, “Antidepressant/anxiolytic drug in which PAC1 receptor antagonist is used” (KAGOSHIMA UNIVERSITY, priority 2020, dated 2025)

Tests used:
[1] = test system: normal mice; experiment: Y maze test in normal mice; assay type: in vivo, mouse; conditions: 30 mg/kg i.p., 60 minutes after
Experimental: A vehicle (10% DMSO solution; dissolved in saline; n=11) or PA-915 (30 mg/kg; n=10) was intraperitoneally administered (0.1 mL/10 g) to male C57BL/6J mice (8 to 12 weeks old). After a lapse of 60 minutes after administration, the mice were allowed to explore the Y maze for 5 minutes in a laboratory (illuminance: 20 lx). The data was indicated by mean±standard error.

[2] = test system: normal mice; experiment: Novel object recognition test in normal mice; assay type: in vivo, mouse; conditions: 30 mg/kg i.p., 60 minutes later
Experimental: Male C57BL/6J mice (8 weeks old) were acclimatized to the test box by exploration at 10 min/day for 3 days. On the fourth day, two objects differing in shape were placed in the test box, and the mice were allowed to freely explore the test box for 10 minutes (training trial). 23 hours after the completion of exploration, a vehicle (10% DMSO solution; dissolved in saline; n=10) or PA-915 (30 mg/kg; n=10) was intraperitoneally administered thereto (0.1 mL/10 g). 60 minutes later, one of the two objects was changed to a novel object, and the mice were allowed to explore the test box for 5 minutes (retention trial). Novel and known object exploration times were measured. The results are shown in FIGS. 36B and 36C (B: discrimination index, C: novel object exploration ratio). The data was indicated by mean±standard error.

O=C(NCCc1c[nH]cn1)C1CC(=O)N(c2n[nH]c3c(Cl)cccc23)C1 (centres unmarked) [PA-915, N-[2-(1H-imidazol-4-yl)ethyl]-1-(7-chloro-1H-indazol-3-yl)-5-oxo-3-pyrrolidinecarboxamide]
influence on cognitive function (Y maze test) [1]: had no influence on the cognitive function
influence on cognitive function (novel object recognition test) [2]: had no influence on the cognitive function
